Entries after “also recorded” stand apart in the source; their conditions may differ.
How the values were obtained:
Her2 = assay: IC50 range for inhibition of Her2 degradation (Table 8); assay type: cell-based; details: Homo sapiens
Procedure: Human high-Her2 breast carcinoma BT474 (HTB-20), SK-BR-3 (HTB-30) and MCF-7 breast carcinoma (HTB-22) from American Type Culture Collection, VA, USA were grown in Dulbecco's modified Eagle's medium with 4 mM L-glutamine and antibiotics (100 IU/ml penicillin and 100 ug/ml streptomycine; GibcoBRL). To obtain exponential cell growth, cells were trypsinized, counted and seeded at a cell density of 0.5×10^6 cells/ml regularly, every 3 days. All experiments were performed on day 1 after cell passage. […]
After treatment with a compound of the invention, cells were washed twice with 1×PBS/1% FBS, and then stained with anti-Her2-FITC (#340553, BD) for 30 min at 4° C. Cells were then washed three times in FACS buffer before the fixation in 0.5 ml 1% paraformadehydrede. Data was acquired on a FACSCalibur system. Isotype-matched controls were used to establish the non-specific staining of samples and to set the fluorescent markers. A total 10,000 events were recorded from each sample. Data were analysed by using CellQuest software (BD Biosciences).

MDA-MB-435S = MDA-MB-435S nude mouse xenograft model; assay type: in vivo; details: 300 mg/kg IP, 5 times per week for 3 weeks, nude mice; FIG. 4
Procedure: FBS was obtained from Sigma-Aldrich Corp. (St. Louis, Mo., USA), and all other reagents were obtained from Invitrogen Corp. (Carlsbad, Calif., USA). Approximately 4-5×10(6) cells that had been cryopreserved in liquid nitrogen were rapidly thawed at 37° C. and transferred to a 175 cm^2 tissue culture flask containing 50 ml of growth media and then incubated at 37° C. in a 5% CO2 incubator. The growth media was replaced every 2-3 days until the flask became 90% confluent, typically in 5-7 days. To passage and expand the cell line, a 90% confluent flask was washed with 10 ml of room temperature phosphate buffered saline (PBS) and the cells were disassociated by adding 5 ml 1× Trypsin-EDTA (Invitrogen) and incubating at 37° C. until the cells detached from the surface of the flask. To inactivate the trypsin, 5 ml of growth media was added and then the contents of the flask were centrifuged to pellet the cells. The supernatant was aspirated and the cell pellet was resuspended in 10 ml of growth media and the cell number determined using a hemocytometer. […]
Six to eight week old, female Crl:CD-1-nuBR (nude) mice were obtained from Charles River Laboratories (Wilmington, Mass., USA). […] Tumor volumes (V) were calculated by caliper measurement of the width (W), length (L) and thickness (T) of tumors using the following formula: V=[…]×(L×W×T). […]

SMILES: CCc1cc(-c2nnc(S)n2-c2cccc3ccccc23)c(O)cc1O [Compound 49, 3-(2,4-Dihydroxy-5-ethyl-phenyl)-4-(naphthalen-1-yl)-5-mercapto-triazole]
- IC50 (Her2): < 3 µM
- toxicity (effect on body weights) (MDA-MB-435S): not associated with significant toxicity; also recorded: not toxic

Source: patent US20080004276A1, “Method for treating non-hodgkin's lymphoma” (priority 2006, published 2008)
